Among the data in BindingDB's records for doi:10.1016/j.bmcl.2011.10.120 (Amgen, 2011) are IC50 values, retold here.

pIC50: −log10 of the molar value.

The nature of this assay: Antagonist activity at CXCR3 assessed as inhibition of ITAC-mediated cell migration in presence of 100% human serum.

Regarding `CCS(=O)(=O)CCN(C(=O)Cc1ccc(C(F)(F)F)c(F)c1)[C@H](C)c1nc2ncccc2c(=O)n1-c1ccc(F)cc1`, the negative logarithm of the IC50 (pIC50) was 6.53.

For the molecule `C[C@H](c1nc2ccccn2c(=O)c1-c1ccc(C#N)cc1)N(CC1CCS(=O)(=O)CC1)C(=O)Cc1ccc(OC(F)(F)F)cc1`, the pIC50 was 7.22.

On to `C[C@H](c1nc2ncccc2c(=O)n1-c1ccc(C#N)cc1)N(CC1CCS(=O)(=O)CC1)C(=O)Cc1ccc(F)c(C(F)(F)F)c1`, for which the pIC50 is 7.41.

Regarding `C[C@H](c1nc2ncccc2c(=O)n1-c1ccc(C#N)cc1)N(CC1CCS(=O)(=O)CC1)C(=O)Cc1ccc(C(F)(F)F)c(F)c1`, the negative logarithm of the IC50 (pIC50) is 7.43.

Consider `C[C@H](c1nc2ncccc2c(=O)n1-c1ccc(F)cc1)N(CC1CCS(=O)(=O)CC1)C(=O)Cc1ccc(C(F)(F)F)c(F)c1`, for which the pIC50 is 7.05.

For `C[C@H](c1nc2ncccc2c(=O)n1-c1ccc(F)cc1)N(CC1CCS(=O)(=O)CC1)C(=O)Cc1ccc(F)c(C(F)(F)F)c1`, the negative-log IC50 (pIC50) was 7.14.

Regarding `CCS(=O)(=O)CCN(C(=O)Cc1ccc(F)c(C(F)(F)F)c1)[C@H](C)c1nc2ncccc2c(=O)n1-c1ccc(F)cc1`, the negative-log IC50 (pIC50) is 6.60.

For `C[C@H](c1nc2ncccc2c(=O)n1-c1ccc(Cl)cc1)N(CC1CCS(=O)(=O)CC1)C(=O)Cc1ccc(C(F)(F)F)c(F)c1`, the negative logarithm of the IC50 (pIC50) is 7.26.

`C[C@H](c1nc2ncccc2c(=O)n1-c1ccc(Cl)cc1)N(CC1CCS(=O)(=O)CC1)C(=O)Cc1ccc(F)c(C(F)(F)F)c1`: the pIC50 was 7.35.

As for `CCS(=O)(=O)CCN(C(=O)Cc1ccc(C(F)(F)F)c(F)c1)[C@H](C)c1nc2ncccc2c(=O)n1-c1ccc(Cl)cc1`, the negative logarithm of the IC50 (pIC50) is 6.97.

Turning to `CCS(=O)(=O)CCN(C(=O)Cc1ccc(F)c(C(F)(F)F)c1)[C@H](C)c1nc2ncccc2c(=O)n1-c1ccc(Cl)cc1`, the pIC50 is 6.99.

As to `CCS(=O)(=O)CCN(C(=O)Cc1ccc(C(F)(F)F)c(F)c1)[C@H](C)c1nc2ncccc2c(=O)n1-c1ccc(C#N)cc1` [(R)-N-(1-(3-(4-cyanophenyl)-4-oxo-3,4-dihydropyrido[2,3-d]pyrimidin-2-yl)ethyl)-N-(2-(ethylsulfonyl)ethyl)-2-(3-fluoro-4-(trifluoromethyl)phenyl)acetamide], the pIC50 was 7.33.
